Data: the supplement of paper PMC10307832

Tests used:
Assay in all cases: relative viability (nuclei count vs DMSO), 5 days (fraction); higher = more cells survive
[1] = test system: A-427
Procedure, shortened: (§1)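 The day after seeding in 1536-well plates, lung cancer cell lines were treated by pin tool with a single drug, or with a fixed anchor-drug dose together with five library-drug doses (not always all listed) in √10 steps. After 5 days, a combined fix-and-stain solution (final 0.05% Triton X-100, 1% formaldehyde, 1 ug/ml Hoechst) was added. Nuclei counted on 4× images gave relative viability as treated counts over vehicle counts, reported as the median of duplicate plates.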

[2] = test system: HCC-366
Procedure, shortened: as §1

[3] = test system: HCC-827
Procedure, shortened: as §1

[4] = test system: LC-2-ad
Procedure, shortened: as §1

[5] = test system: LCLC-103H
Procedure, shortened: as §1

[6] = test system: NCI-H1355
Procedure, shortened: as §1

[7] = test system: NCI-H1734
Procedure, shortened: as §1

[8] = test system: NCI-H1755
Procedure, shortened: as §1

[9] = test system: NCI-H1915
Procedure, shortened: as §1

[10] = test system: NCI-H1975
Procedure, shortened: as §1

[11] = test system: NCI-H1993
Procedure, shortened: as §1

[12] = test system: NCI-H2170
Procedure, shortened: as §1

[13] = test system: NCI-H2228
Procedure, shortened: as §1

[14] = test system: NCI-H2342
Procedure, shortened: as §1

[15] = test system: NCI-H2347
Procedure, shortened: as §1

[16] = test system: NCI-H23
Procedure, shortened: as §1

[17] = test system: NCI-H650
Procedure, shortened: as §1

[18] = test system: RERF-LC-KJ
Procedure, shortened: as §1

[19] = test system: SK-LU-1
Procedure, shortened: as §1

[20] = test system: SK-MES-1
Procedure, shortened: as §1

[21] = test system: SW 1573
Procedure, shortened: as §1

[22] = test system: UMC-11
Procedure, shortened: as §1

`CN1CCN(CCOc2cc(OC3CCOCC3)c3c(Nc4c(Cl)ccc5c4OCO5)ncnc3c2)CC1` [Saracatinib] + O=C(CCCCCCC(=O)Nc1ccccc1)NO [Vorinostat] (partner 1 µM) showed a relative viability ([1]; first compound 0.02 µM) of 0.899, a relative viability ([1]; first compound 0.2 µM) of 0.852 and a relative viability ([1]; first compound 0.6325 µM) of 0.795. The relative viability ([1]; first compound 2 µM) was 0.863, the relative viability ([2]; first compound 0.02 µM) was 0.4 and the relative viability ([2]; first compound 0.2 µM) was 0.135. For the same molecule, the relative viability ([2]; first compound 0.6325 µM) was 0.399, the relative viability ([2]; first compound 2 µM) was 0.221 and the relative viability ([3]; first compound 0.02 µM) was 0.926. For the same molecule, the relative viability ([3]; first compound 0.2 µM) was 0.643, the relative viability ([3]; first compound 0.6325 µM) was 0.354 and the relative viability ([3]; first compound 2 µM) was 0.15. It also gave a relative viability ([4]; first compound 0.02 µM) of 0.757, a relative viability ([4]; first compound 0.2 µM) of 0.668 and a relative viability ([4]; first compound 0.6325 µM) of 0.777. For the same molecule, the relative viability ([4]; first compound 2 µM) was 0.68, the relative viability ([5]; first compound 0.02 µM) was 0.868 and the relative viability ([5]; first compound 0.2 µM) was 0.733. For the same molecule, the relative viability ([5]; first compound 0.6325 µM) was 0.846, the relative viability ([5]; first compound 2 µM) was 0.762 and the relative viability ([6]; first compound 0.02 µM) was 0.668. The relative viability ([6]; first compound 0.2 µM) was 0.62, the relative viability ([6]; first compound 0.6325 µM) was 0.7 and the relative viability ([6]; first compound 2 µM) was 0.587. It also gave a relative viability ([7]; first compound 0.02 µM) of 0.793, a relative viability ([7]; first compound 0.6325 µM) of 0.837 and a relative viability ([7]; first compound 2 µM) of 0.652. It also gave a relative viability ([8]; first compound 0.02 µM) of 0.687, a relative viability ([8]; first compound 0.2 µM) of 0.539 and a relative viability ([8]; first compound 0.6325 µM) of 0.861. For the same molecule, the relative viability ([8]; first compound 2 µM) was 0.707, the relative viability ([9]; first compound 0.02 µM) was 0.472 and the relative viability ([9]; first compound 0.2 µM) was 0.462. The relative viability ([9]; first compound 0.6325 µM) was 0.477, the relative viability ([9]; first compound 2 µM) was 0.477 and the relative viability ([10]; first compound 0.02 µM) was 0.72. It also gave a relative viability ([10]; first compound 0.2 µM) of 0.716, a relative viability ([10]; first compound 0.6325 µM) of 0.725 and a relative viability ([10]; first compound 2 µM) of 0.563. For the same molecule, the relative viability ([11]; first compound 0.02 µM) was 0.806, the relative viability ([11]; first compound 0.2 µM) was 0.651 and the relative viability ([11]; first compound 0.6325 µM) was 0.874. The relative viability ([11]; first compound 2 µM) was 0.533, the relative viability ([12]; first compound 0.02 µM) was 0.746 and the relative viability ([12]; first compound 0.2 µM) was 0.678. It also gave a relative viability ([12]; first compound 0.6325 µM) of 0.93, a relative viability ([12]; first compound 2 µM) of 0.571 and a relative viability ([13]; first compound 0.02 µM) of 0.8. It also gave a relative viability ([13]; first compound 0.2 µM) of 0.6, a relative viability ([13]; first compound 0.6325 µM) of 0.611 and a relative viability ([13]; first compound 2 µM) of 0.633. It also gave a relative viability ([14]; first compound 0.02 µM) of 0.774, a relative viability ([14]; first compound 0.2 µM) of 0.747 and a relative viability ([14]; first compound 0.6325 µM) of 0.782. For the same molecule, the relative viability ([14]; first compound 2 µM) was 0.833, the relative viability ([15]; first compound 0.02 µM) was 0.558 and the relative viability ([15]; first compound 0.2 µM) was 0.413. It also gave a relative viability ([15]; first compound 0.6325 µM) of 0.719, a relative viability ([15]; first compound 2 µM) of 0.622 and a relative viability ([16]; first compound 0.02 µM) of 0.539. The relative viability ([16]; first compound 0.6325 µM) was 0.658, the relative viability ([16]; first compound 2 µM) was 0.442 and the relative viability ([17]; first compound 0.02 µM) was 0.5. For the same molecule, the relative viability ([17]; first compound 0.2 µM) was 0.365, the relative viability ([17]; first compound 0.6325 µM) was 0.384 and the relative viability ([17]; first compound 2 µM) was 0.857. For the same molecule, the relative viability ([18]; first compound 0.02 µM) was 0.87, the relative viability ([18]; first compound 0.2 µM) was 0.729 and the relative viability ([18]; first compound 0.6325 µM) was 0.753. It also gave a relative viability ([18]; first compound 2 µM) of 0.589, a relative viability ([19]; first compound 0.02 µM) of 0.758 and a relative viability ([19]; first compound 0.2 µM) of 0.657. The relative viability ([19]; first compound 0.6325 µM) was 0.657, the relative viability ([19]; first compound 2 µM) was 0.509 and the relative viability ([20]; first compound 0.02 µM) was 1.17. The relative viability ([20]; first compound 0.2 µM) was 1.05, the relative viability ([20]; first compound 0.6325 µM) was 1.17 and the relative viability ([20]; first compound 2 µM) was 0.83. The relative viability ([21]; first compound 0.02 µM) was 0.699, the relative viability ([21]; first compound 0.2 µM) was 0.702 and the relative viability ([21]; first compound 0.6325 µM) was 0.664. The relative viability ([21]; first compound 2 µM) was 0.47, the relative viability ([22]; first compound 0.02 µM) was 0.376 and the relative viability ([22]; first compound 0.2 µM) was 0.363. For the same molecule, the relative viability ([22]; first compound 0.6325 µM) was 0.388 and the relative viability ([22]; first compound 2 µM) was 0.253.
